Laboratory results from publication PMC11623267, “Inhibitors of malaria parasite cyclic nucleotide phosphodiesterases block asexual blood-stage development and mosquito transmission” (Science Advances, 2024).
Read-outs that look alike come from different tables or passages of the source.

Experiments:
Type in all cases: cell-based, Plasmodium falciparum
[1] = test system: P. falciparum clinical isolates from Tororo and Busia Districts of Uganda; assay: Ex vivo 72-hour SYBR Green assay, Ugandan clinical isolates; settings: 47 Ugandan isolates
From the text: Clinical isolates were from the Tororo District of Uganda, located in the central-eastern part of the county near the Kenya border. Tororo and surrounding areas have high-intensity, year-round malaria transmission. […] Patients reporting use of antimalarial treatment within the previous 30 days or with evidence of an infection with other Plasmodium species were excluded. Informed consent was obtained from patients and/or primary care givers (depending on age); children aged 8 to 17 years provided assent. Two to 5 ml of blood was collected by venipuncture in a heparin tube. Samples were delivered to the adjacent IDRC laboratory at Tororo District Hospital or transported by car from Masafu Hospital on the day of collections for storage of blood spots on filter paper (for isolation of nucleic acids) and initiation of ex vivo culture of malaria parasites. Treatment involved a standard therapeutic regimen for uncomplicated falciparum malaria, which was a 3-day course of the artemisinin-based combination therapy (ACT), artemether-lumefantrine. In Uganda, at the time of sampling, there was widespread resistance to the antifolate drugs due to mutant pfdhfr/pfdhps alleles. […] Chloroquine was prepared at 10 mM in water. Stock solutions were stored at −20°C. Working solutions were freshly prepared from a single aliquot within 4 hours of the susceptibility test and stored at 4°C.
(§1) Samples were delivered to the adjacent IDRC laboratory at Tororo District Hospital or transported by car from Masafu Hospital on the day of collection for storage of blood spots on filter paper (for isolation of nucleic acids) and initiation of ex vivo culture of malaria parasites. […] Before assay, 10 mM antimalarial stock compounds were diluted as necessary in DMSO and stored at −20°C. […] Compounds were serially diluted threefold in a 96-well assay plate in complete medium to a final volume of 50 μl, in columns 1 to 10, with concentrations optimized to capture full dose-response curves. Column 11 contained compound-free controls, while column 12 contained uninfected human RBC controls. Parasite culture (150 μl) was added to columns 1 to 11 of the assay plate with a final volume of 200 μl per well, 0.2% parasitemia, and 2% hematocrit. […] Thawed plates were incubated with SYBR Green lysis buffer for 1 hour in the dark as previously reported ([62]). Fluorescence was quantified using a BMG Fluostar Optima plate reader at an excitation of 485 nm and an emission of 530 nm, and data were plotted using GraphPad Prism 7. The data were curve fit with a variable slope function to estimate IC50 values. For each isolate, a Z′ factor to assess assay quality was calculated from positive controls (eight drug-free wells) and negative controls (eight parasite-free, red cell control wells). Z′ values over 0.5 were considered good assays, but each curve was also examined by eye for suitability. Some assays with Z′ below 0.5 may be considered valid depending on factors such as the SE of the curve-fit IC50.

P. falciparum Dd2 = assay: Ex vivo 72-hour SYBR Green assay, Dd2 control (Uganda); settings: Ugandan ex vivo assay control; read-out: EC50 lab strain Dd2
Procedure: as §1

P. falciparum Dd2-B2 = assay: 72-hour flow cytometry EC50 assay, Dd2-B2 parental line; settings: Plasmodium falciparum, DD2, read-out: EC50 Dd2-B2 parental line

CC(C)c1[nH]nc2c(=O)[nH]c(Cc3ccccc3F)nc12 [SAL-0010042]
EC50 ([1]; read-out: EC50 clinical isolates, Gmean (geometric mean)): 0.204 µM
EC50 ([1]; read-out: EC50 clinical isolates, Median): 0.197 µM
EC50 (P. falciparum Dd2): 0.115 µM

CC(C)c1n[nH]c2c(=O)[nH]c(Cc3ccc(F)cc3F)nc12 [SAL-0010003]
EC50 (P. falciparum Dd2-B2): 0.304 µM
